The assay relates to vTT infected 7b cells. The experiment in a line: Detection of apoptosis (DePsipher MPT; CaspACE activated caspases). The settings on record: overnight capsaicin (3 μm) stimulation. The format is cell-based. The protocol: Detection of Apoptosis. The DePsipher kit (R&D systems, Minneapolis, Minn.) was used to detect the initiation of mitochondrial permeability transition (MPT) in 7b cells. Briefly, vTT or QOZ infected cells (12 hpi, 0.1 PFU/cell) were incubated with 3 μm capsaicin for one hour at 37° C. in a 5% CO2 incubator. Cells were then loaded with 1 μl DePsipher/ml in pre-warmed culture media for 15-20 min at 37° C. in a 5% CO2 incubator. Following two washes in prewarmed media, cells were immediately imaged using an inverted fluorescence microscope (Carl Zeiss Inc.). For activated caspase detection, the CaspACE FITC-VAD-FMK In-Situ Marker kit (Promega, Madison, Wis.) was used. Briefly, CaspACE FITC-VAD-FMK was added to a final concentration of 10 μM to 7b cells infected with vTT or QOZ virus (12 hpi, 0.3 PFU/cell). Cells were incubated for 20 minutes at 37° C. in a 5% CO2 incubator. Following two washes in PBS, cells were fixed for 30 minutes in 10% formalin, washed three times with PBS and imaged using an inverted fluorescence microscope (Carl Zeiss Inc.).

As to `COc1cc(CNC(=O)CCCC/C=C/C(C)C)ccc1O` [capsaicin], the activated caspases result is “positive”.

(Values after patent US20060275812A1, “Assay for agonists and antagonists of ion channels and for regulators of genetic expression” (University of Pittsburgh of the Commonwealth System of …, priority 2005, published 2006).)
